Results published in patent US11427615B2, “Peptide compound and application thereof, and composition containing peptide compound” (XDCEXPLORER (SHANGHAI) CO., LTD., priority 2017, dated 2022).
Starred links: 1 amine or outer side, 2 acyl side, 3 side chain; linkers in the order of their positions; H or OH if unused. Non-standard residues stand in square brackets, D forms with d. Residues, ends and D or L forms follow the SMILES beside them. Ala(1-Me-3-pyridinium) = C[n+]1cccc(C[C@H](N)C(=O)O)c1; X6 = O=C([C@H](Cc1ccc(-n2cccn2)cc1)N[*:1])[*:2]; dPhe(2,4-Cl2) = N[C@H](Cc1ccc(Cl)cc1Cl)C(=O)O; Pro(4,4-F2) = O=C(O)[C@@H]1CC(F)(F)CN1; Arg(Me) = CNC(=N)NCCC[C@H](N)C(=O)O; Hyp = O=C(O)[C@@H]1C[C@@H](O)CN1; Pip = O=C(O)[C@@H]1CCCCN1; dPip = O=C(O)[C@H]1CCCCN1; Ac6c = NC1(C(=O)O)CCCCC1; azaGly = NNC(=O)O

target: T1, human kiss1 receptor (GPR54) (Homo sapiens, UniProt Q969F8); assay: Kiss1 receptor (GPR54) binding activity of agonists, FRET detection in NFAT-bla CHO-K1 cells; assay type: cell-based; conditions: GPR54; measured according to the method of effect Embodiment 1; preliminary data; read-out: Preliminary measurement data (GPR54) EC50
T1 construct: host or cells: NFAT-bla CHO-K1 cells (Chinese hamster ovary), purchased recombinant cell line
T1 sequence (Q969F8 whole entry): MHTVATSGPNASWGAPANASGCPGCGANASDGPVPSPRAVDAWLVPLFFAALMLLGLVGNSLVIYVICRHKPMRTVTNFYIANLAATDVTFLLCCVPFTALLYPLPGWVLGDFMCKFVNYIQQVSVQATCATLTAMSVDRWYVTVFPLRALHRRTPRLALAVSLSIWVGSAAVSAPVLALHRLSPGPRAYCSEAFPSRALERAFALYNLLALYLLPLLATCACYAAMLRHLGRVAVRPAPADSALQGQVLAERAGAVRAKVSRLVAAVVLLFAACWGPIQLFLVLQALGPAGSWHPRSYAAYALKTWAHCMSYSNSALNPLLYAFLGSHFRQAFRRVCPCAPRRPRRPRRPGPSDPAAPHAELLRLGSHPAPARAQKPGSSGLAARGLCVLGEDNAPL

SMILES	EC50 [nM]
CNC(=N)NCCC[C@H](NC(=O)[C@H](CC(C)C)NC(=O)[C@@H]1CCCCN1C(=O)[C@H](Cc1ccccc1)NC(=O)[C@@H](NC(=O)[C@H](CC(N)=O)NC(=O)[C@@H]1C[C@@H](O)CN1C(=O)[C@@H](Cc1ccc(O)cc1)NC(C)=O)[C@@H](C)O)C(=O)N[C@@H](Cc1c[nH]c2ccccc12)C(N)=O [YA-226, Ac-(D-Tyr)-Hyp-Asn-Thr-Phe-(S-Pip)-Leu-Arg(Me)-Trp-NH2] (Ac-[dY][Hyp]NTF[Pip]L[Arg(Me)]W-NH2)	8
CNC(=N)NCCC[C@H](NC(=O)[C@H](CC(C)C)NC(=O)[C@H]1CCCCN1C(=O)[C@H](Cc1ccccc1)NC(=O)[C@@H](NC(=O)[C@H](CC(N)=O)NC(=O)[C@@H]1C[C@@H](O)CN1C(=O)[C@@H](Cc1ccc(O)cc1)NC(C)=O)[C@@H](C)O)C(=O)N[C@@H](Cc1c[nH]c2ccccc12)C(N)=O [YA-227, Ac-(D-Tyr)-Hyp-Asn-Thr-Phe-(R-Pip)-Leu-Arg(Me)-Trp-NH2] (Ac-[dY][Hyp]NTF[dPip]L[Arg(Me)]W-NH2)	1.89
CNC(=N)NCCC[C@H](NC(=O)[C@H](CC(C)C)NC(=O)C1(NC(=O)[C@H](Cc2ccccc2)NC(=O)[C@@H](NC(=O)[C@H](CC(N)=O)NC(=O)[C@H]2CCCCN2C(=O)[C@@H](Cc2ccc(O)cc2)NC(C)=O)[C@@H](C)O)CCCCC1)C(=O)N[C@@H](Cc1c[nH]c2ccccc12)C(N)=O [YA-229, Ac-(D-Tyr)-(R-Pip)-Asn-Thr-Phe-A6c-Leu-Arg(Me)-Trp-NH2] (Ac-[dY][dPip]NTF[Ac6c]L[Arg(Me)]W-NH2)	20.3
CNC(=N)NCCC[C@H](NC(=O)[C@H](CC(C)C)NC(=O)NNC(=O)[C@H](Cc1ccccc1)NC(=O)[C@@H](NC(=O)[C@H](CC(N)=O)NC(=O)[C@@H]1C[C@@H](O)CN1C(=O)[C@H](Cc1ccc[n+](C)c1)NC(C)=O)[C@@H](C)O)C(=O)N[C@@H](Cc1c[nH]c2ccccc12)C(N)=O [YA-239, Ac-[(S)-3-(2-amino-2-carboxyethyl)-1-methylpyridinium]-Hyp-Asn-Thr-Phe-azaGly-Leu-Arg(Me)-Trp-NH2] (Ac-[Ala(1-Me-3-pyridinium)][Hyp]NTF[azaGly]L[Arg(Me)]W-NH2)	1
CNC(=N)NCCC[C@H](NC(=O)[C@H](CC(C)C)NC(=O)C1(NC(=O)[C@H](Cc2ccccc2)NC(=O)[C@@H](NC(=O)[C@H](CC(N)=O)NC(=O)[C@@H]2CC(F)(F)CN2C(=O)[C@@H](Cc2ccc(Cl)cc2Cl)NC(C)=O)[C@@H](C)O)CCCCC1)C(=O)N[C@@H](Cc1c[nH]c2ccccc12)C(N)=O [YA-248, Ac-[D-Phe(2,4-diCl)]-Pro(diF)-Asn-Thr-Phe-A6c-Leu-Arg(Me)-Trp-NH2] (Ac-[dPhe(2,4-Cl2)][Pro(4,4-F2)]NTF[Ac6c]L[Arg(Me)]W-NH2)	0.78

Next, values leading:

EC50 [nM]	SMILES
0.65	CNC(=N)NCCC[C@H](NC(=O)[C@H](CC(C)C)NC(=O)C1(NC(=O)[C@H](Cc2ccccc2)NC(=O)[C@@H](NC(=O)[C@H](CC(N)=O)NC(=O)[C@@H]2CCCCN2C(=O)[C@@H](Cc2ccc(O)cc2)NC(C)=O)[C@@H](C)O)CCCCC1)C(=O)N[C@@H](Cc1c[nH]c2ccccc12)C(N)=O [YA-228, Ac-D-Tyr-(S-Pip)-Asn-Thr-Phe-A6c-Leu-Arg(Me)-Trp-NH2] (Ac-[dY][Pip]NTF[Ac6c]L[Arg(Me)]W-NH2)
0.65	CNC(=N)NCCC[C@H](NC(=O)[C@H](CC(C)C)NC(=O)C1(NC(=O)[C@H](Cc2ccccc2)NC(=O)[C@@H](NC(=O)[C@H](CC(N)=O)NC(=O)[C@@H]2CC(F)(F)CN2C(=O)[C@@H](Cc2ccc(O)cc2)NC(C)=O)[C@@H](C)O)CCCCC1)C(=O)N[C@@H](Cc1c[nH]c2ccccc12)C(N)=O [YA-251, Ac-D-Tyr-Pro(diF)-Asn-Thr-Phe-A6c-Leu-Arg(Me)-Trp-NH2] (Ac-[dY][Pro(4,4-F2)]NTF[Ac6c]L[Arg(Me)]W-NH2)
0.027	CNC(=N)NCCC[C@H](NC(=O)[C@H](CC(C)C)NC(=O)NNC(=O)[C@H](Cc1ccccc1)NC(=O)[C@@H](NC(=O)[C@H](CC(N)=O)NC(=O)C1(NC(=O)[C@@H](Cc2ccc(Cl)cc2Cl)NC(C)=O)CCCCC1)[C@@H](C)O)C(=O)N[C@@H](Cc1c[nH]c2ccccc12)C(N)=O [YA-260, Ac-[D-Phe(2,4-DiCl)]-A6c-Asn-Thr-Phe-azaGly-Leu-Arg(Me)-Trp-NH2] (Ac-[dPhe(2,4-Cl2)][Ac6c]NTF[azaGly]L[Arg(Me)]W-NH2)

same assay, conditions: NFAT-bla CHO-K1 cells that express human kiss1 receptor (GPR54); FRET; cells cultured with compound for 4 hours; read-out: GPR54 EC50/nM

EC50 [nM]	SMILES
3.75	CC(=O)N[C@H](Cc1ccc(Cl)cc1Cl)C(=O)N1CCCC[C@H]1C(=O)N[C@@H](CC(N)=O)C(=O)N[C@H](C(=O)N[C@@H](Cc1ccccc1)C(=O)NNC(=O)N[C@@H](CC(C)C)C(=O)N[C@@H](Cc1ccc(-n2cccn2)cc1)C(=O)N[C@@H](Cc1c[nH]c2ccccc12)C(N)=O)[C@@H](C)O [YA-242, Ac-[D-Phe(2,4-diCl)]—(S-Pip)-Asn-Thr-Phe-azaGly-Leu-Phe(4-Pyrazol)-Trp-NH2] (Ac-[dPhe(2,4-Cl2)][Pip]NTF[azaGly]L[X6]W-NH2)

same assay, conditions: human kiss1 receptor (GPR54), NFAT-bla CHO-K1 cells, FRET; preliminary data; method of effect Embodiment 1; read-out: Preliminary measurement data (GPR54) EC50

EC50 [nM]	SMILES
3.74	CC(=O)N[C@H](Cc1ccc(Cl)cc1Cl)C(=O)N1CCCC[C@H]1C(=O)N[C@@H](CC(N)=O)C(=O)N[C@H](C(=O)N[C@@H](Cc1ccccc1)C(=O)NNC(=O)N[C@@H](CC(C)C)C(=O)N[C@@H](Cc1ccc(-n2cccn2)cc1)C(=O)N[C@@H](Cc1c[nH]c2ccccc12)C(N)=O)[C@@H](C)O [YA-242, Ac-[D-Phe(2,4-diCl)]—(S-Pip)-Asn-Thr-Phe-azaGly-Leu-Phe(4-Pyrazol)-Trp-NH2] (Ac-[dPhe(2,4-Cl2)][Pip]NTF[azaGly]L[X6]W-NH2)
